Results: US20240360133A1, “FUSED TRICYCLIC COMPOUND, PREPARATION METHOD THEREFOR AND APPLICATION THEREOF IN MEDICINE” (Jiangsu Hengrui Pharmaceuticals Co., Ltd., priority 2020, published 2024)

The molecules below were run against T1, human TLR8 (Homo sapiens, UniProt Q9NR97) (assay: Inhibitory effect on human TLR8 pathway (HEK-Blue hTLR8 SEAP reporter)). Settings: HEK-Blue hTLR8 cells, 6 μM resiquimod, 20 h, SEAP OD620.
T1 construct: host or cells: HEK-Blue hTLR8 (HEK293)
T1 sequence (Q9NR97 27-1041): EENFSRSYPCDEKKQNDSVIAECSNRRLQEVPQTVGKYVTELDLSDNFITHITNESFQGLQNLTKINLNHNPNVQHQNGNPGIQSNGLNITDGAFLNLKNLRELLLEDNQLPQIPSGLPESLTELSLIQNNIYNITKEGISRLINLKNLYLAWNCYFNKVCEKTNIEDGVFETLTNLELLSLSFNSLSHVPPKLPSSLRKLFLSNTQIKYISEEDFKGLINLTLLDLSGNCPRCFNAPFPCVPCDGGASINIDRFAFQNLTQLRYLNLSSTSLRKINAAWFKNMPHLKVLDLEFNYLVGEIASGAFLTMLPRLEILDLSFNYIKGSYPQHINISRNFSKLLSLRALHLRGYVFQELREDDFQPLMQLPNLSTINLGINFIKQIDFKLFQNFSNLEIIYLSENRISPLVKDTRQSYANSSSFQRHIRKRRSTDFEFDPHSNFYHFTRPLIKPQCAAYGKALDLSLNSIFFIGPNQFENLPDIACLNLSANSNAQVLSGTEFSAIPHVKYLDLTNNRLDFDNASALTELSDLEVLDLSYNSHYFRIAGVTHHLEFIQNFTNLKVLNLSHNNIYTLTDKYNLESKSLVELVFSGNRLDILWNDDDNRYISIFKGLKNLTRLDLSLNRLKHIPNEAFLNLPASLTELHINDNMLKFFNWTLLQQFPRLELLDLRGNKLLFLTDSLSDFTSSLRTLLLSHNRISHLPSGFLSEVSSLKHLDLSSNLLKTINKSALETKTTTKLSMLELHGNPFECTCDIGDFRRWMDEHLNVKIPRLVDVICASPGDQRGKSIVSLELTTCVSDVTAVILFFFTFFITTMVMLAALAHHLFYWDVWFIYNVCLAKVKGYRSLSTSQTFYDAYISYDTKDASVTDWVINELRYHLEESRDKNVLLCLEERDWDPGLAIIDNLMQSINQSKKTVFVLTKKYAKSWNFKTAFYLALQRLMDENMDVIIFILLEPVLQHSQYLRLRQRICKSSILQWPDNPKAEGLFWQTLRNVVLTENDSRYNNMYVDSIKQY
Format: cell-based
Procedure: • 1. HEK-Blue™ hTLR8 cell (Invivogen) • 2. Resiquimod (R848, Invivogen) • 3. Alkaline phosphatase detection medium (Quanti-Blue Detection, Invivogen) • 4. Blasticidin (Invivogen) • 5. Zeocin (Invivogen) • 6. Normocin (Invivogen) • 7. DMEM/HIGH Glucose (GE Healthcare) • 8. Fetal bovine serum (FBS, Gibco) • 9. Phosphate-buffered saline (Shanghai BasalMedia Technologies Co., Ltd.) • 10. Sterile purified water (made in-house by Shanghai Hengrui) • 11. 15 mL centrifuge tube (Corning) • 12. 96-well formulating plate (Corning) • 13. 96-well flat-bottom cell culture plate (Corning) • 14. Constant-temperature cell incubator (Thermo scientific) • 15. Constant-temperature incubator (Shanghai Yiheng Scientific Instruments Co., Ltd.) • 16. PHERAstar FS microplate reader (BMG Labtech)
HEK-Blue™ hTLR8 cells were purchased from Invivogen. These cells are HEK293 cells transfected with the human Toll-like receptor 8 (TLR8) gene and the secreted alkaline phosphatase reporter gene (SEAP). The alkaline phosphatase reporter gene (SEAP) is under the regulation of the IFN—P minimal promoter comprising 5 NF-kB and AP-1 binding sites. Upon activation of TLR8 with an agonist, SEAP secretion is induced via downstream NF-kB and AP-1. After addition of an antagonist compound, the pathway described above is inhibited, and SEAP secretion is reduced. The activity of the compounds for the TLR8 pathway was evaluated by measuring OD620 through the SEAP substrate.
20 mM test compounds dissolved in 100% DMSO were serially diluted with 100% DMSO to 2000, 400, 80, 16, 3.2, 0.64, 0.128, 0.0256 μM, with blank wells containing 100% DMSO. The compounds and 100% DMSO were then 20-fold diluted in DMEM/HIGH glucose media containing 10% inactivated FBS (complete media, the same applies below). Resiquimod was diluted to 60 μM with sterile water. The 60 μM resiquimod dilution in sterile water was added to a 96-well cell culture plate at 20 μL/well. The above compounds diluted in complete media and 100% DMSO were then added at 20 μL/well to wells containing resiquimod, 20 μL of sterile water and 20 μL of 100% DMSO diluted in the complete medium were added to negative control wells.
HEK-Blue™ hTLR8 cells were cultured in a DMEM/HIGH glucose medium containing 10% inactivated FBS, 100 μg/mL Normocin, 10 μg/mL blasticidin, and 100 μg/mL Zeocin. Cells that were in a good state of growth and had grown to 70%-8% were collected. The growth medium was discarded, 5-10 mL of PBS pre-heated at 37° C. was added to wash the cells once, and 2-5 mL of pre-heated PBS was added. The cells were cultured at 37° C. for 1-2 min, dispersed by pipetting, transferred to a 15 mL centrifuge tube, and counted, and the cell density was adjusted to 4.8×10^5/mL with the complete medium. After density adjustment, 160 μL of the resulting cell suspension was added to the above 96-well cell culture plate to a final number of cells per well of 76,500/well. The final concentration of resiquimod was 6 μM, and the final concentrations of the test compounds were 10,000, 2000, 400, 80, 16, 3.2, 0.64, and 0.128 nM. The cells were cultured in a 37° C., 5% CO2 incubator for 20 h. Then 20 μL of the supernatant was added to 180 μL of the prepared alkaline phosphatase detection medium and incubated in the dark in a constant-temperature incubator at 37° C. for 120 min. The OD620 absorbance readings were taken on a microplate reader. The inhibition rate was calculated using the following formula: […]
Inhibition curves were plotted using Graphpad Prism software according to the concentrations of the compounds and the corresponding inhibition rates, and the concentrations of the compounds at which the inhibition rate reached 50%, i.e., IC50 values, were calculated and are shown in Table 2.
Molecule `Cc1cc(-c2[nH]c3cc4c(nc3c2C(C)C)CNCC4)cc(C)n1` [Example 1, 2-(2,6-Dimethylpyridin-4-yl)-3-isopropyl-5,6,7,8-tetrahydro-1H-pyrrolo[3,2-b][1,7]naphthyridine] has an IC50 of 0.8 nM. Molecule `Cc1cc(-c2[nH]c3cc4c(nc3c2C(C)C)CN(C(C)C)CC4)cc(C)n1` [Example 2, 2-(2,6-Dimethylpyridin-4-yl)-3,6-diisopropyl-5,6,7,8-tetrahydro-1H-pyrrolo[3,2-b][1,7]naphthyridine] has an IC50 of 30.4 nM. In the case of `Cc1cc(-c2[nH]c3cc4c(nc3c2C(C)C)CN(CCc2ccc(N3CCNCC3)nc2)CC4)cc(C)n1` [Example 4, 2-(2,6-Dimethylpyridin-4-yl)-3-isopropyl-6-(2-(6-(piperazin-4-yl)pyridin-3-yl)ethyl)-5,6,7,8-tetrahydro-1H-pyrrolo[3,2-b][1,7]naphthyridine], the IC50 is reported as 1.8 nM. Work on `Cc1cc(-c2[nH]c3cc4c(nc3c2C(C)C)CN(Cc2ccc(N3CCNCC3)cn2)CC4)cc(C)n1` [Example 5, 2-(2,6-Dimethylpyridin-4-yl)-3-isopropyl-6-((5-(piperazin-1-yl)pyridin-2-yl)methyl)-5,6,7,8-tetrahydro-1H-pyrrolo[3,2-b][1,7]naphthyridine] yielded an IC50 of 2.5 nM. `Cc1cc(-c2[nH]c3cc4c(nc3c2C(C)C)CN(CC23CCC(N)(CC2)CC3)CC4)cc(C)n1` [Example 7, 4-((2-(2,6-Dimethylpyridin-4-yl)-3-isopropyl-1,5,7,8-tetrahydro-6H-pyrrolo[3,2-b][1,7]naphthyridin-6-yl)methyl)bicyclo[2.2.2]octyl-1-amine] was tested, and the IC50 was 2.2 nM. In the case of `Cc1cc(-c2[nH]c3cc4c(nc3c2C(C)C)CN(CC(N)=O)CC4)cc(C)n1` [Example 8, 2-(2-(2,6-Dimethylpyridin-4-yl)-3-isopropyl-1,5,7,8-tetrahydro-6H-pyrrolo[3,2-b][1,7]naphthyridin-6-yl)acetamide], the IC50 is reported as 18.8 nM. `Cc1c(-c2[nH]c3cc4c(nc3c2C(C)C)CNCC4)cn2ncnc2c1C` [Example 9, 2-(7,8-Dimethyl-[1,2,4]triazolo[1,5-a]pyridin-6-yl)-3-isopropyl-5,6,7,8-tetrahydro-1H-pyrrolo[3,2-b][1,7]naphthyridine] was tested, and the IC50 was 0.6 nM. `Cc1c(-c2[nH]c3cc4c(nc3c2C(C)C)CN(CC(N)=O)CC4)cn2ncnc2c1C` [Example 10, 2-(2-(7,8-Dimethyl-[1,2,4]triazolo[1,5-a]pyridin-6-yl)-3-isopropyl-1,5,7,8-tetrahydro-6H-pyrrolo[3,2-b][1,7]naphthyridin-6-yl)acetamide] showed an IC50 of 8.2 nM.
